Holding throughout (assay type): cell-based, human
Assay [1] has as its system MES-hGICs-MGT #1low and PN-hGICs-MGT #1low cells. Briefly: FACS quantification of Mesenchymal transdifferentiation after Ionizing Radiation and TNFα. The note with it: TNFα combined with IR 10 Gy. From the text: Irradiation of hGICs: Irradiation was delivered using the XenX irradiator platform (XStrahl Life Sciences), equipped with a 225 kV X-ray tube for targeted irradiation. hGICs cultured in either 6-well plates or 96-well plates were placed in the focal plane of the beamline and exposed to irradiation for a specific time, depending on the target dosage, as calculated with an internal calculation software.
Mesenchymal Differentiation in GBM was originally described as a dominant event at recurrence after radiotherapy^19 and later linked to acquired radio-resistance via TNF-driven NFKB activation^20. Repeatedly, correlative evidences support a link between inflammatory signaling, EMT and radio-resistance^34. To functionally test whether irradiation may induce Mesenchymal transdifferentiation in cell autonomous manner, MES-hGICs-MGT #1^low and PN-hGICs-MGT #1^low cells were exposed to Ionizing Radiation (IR), alone or in combination with TNFα. […] The residual DNA damage marker […] phosphorylation twenty-four hours post irradiation confirmed the occurrence of both double-strand breaks and repair. However, only a minor proportion of GICs turned to a MGT #1^high state from either genetic background (FIG. 2g-h). […] The data also support the speculation that NFKB activation is augmented as a result of non-canonical signaling caused by genotoxic stress^36.

Assay [2] relates to MES-hGICs-MGT #1low. The assay can be described thus: Medium-throughput cytokine screening, bottom reading fluorescence. The note with it: up to 48 hours from stimulation. On the procedure: Phenotypic screening: Tumor cells were propagated as described above until the screening. Then we seeded 15′000/50 μl/well in 384 well plates (Corning), in Gibco FluoroBrite DMEM medium supplemented with the appropriate growth factors. Cells were dispensed as 50 μl suspension into each well using the SPARK20M Injector system (50 μl injection volume; 100 μl/s injection speed). For non-adherent cells (e.g. GICs), cells were further centrifuge at 1500 rpm for 1 h30 min at 37° C. Bottom reading fluorescence was scanned using a SPARM 20M TECAN plate reader at 37° C. in a 5% CO2-95% air (3% for GICs) in a humidified cassette, with the following settings for mVenus: Monochromator, Ex 505 nm±20 nm, Em 535 nm±7.5 nm, manual gain:198, flashes: 35, Integration time:40 μs. In independent replicas, cell viability was measured with 0.02% AlamarBlue solution in FluoroBrite medium with the following settings: Fluorescence Top reading. Monochromator, Ex 565 nm±10 nm, Em 592 nm±10 nm, manual gain: 88, flashes: 30, Integration time:40 μs. […]
Human GICs and GSCs are consistently propagated under “NBE” conditions, which stands for serum-free Neurobasal media supplemented with basic FGF and EGF^25. […] Next, GICs were stimulated with individual cytokines in biological and technical replica followed by continuous fluorescence bottom reading in a pre-defined time course experiment. […]

In assay [3] the test system is MES-hGICs-MGT #1low and PN-hGICs-MGT #1low cells. The assay can be described thus: Phenotypic screening of sLCR response to selected factors, FACS. To be noted: 48 hours after stimulation. On the procedure:
NBE-propagated hGICs were stimulated with selected factors (cytokines, growth factors, compounds) and FACS analyzed 48 hours after stimulation (FIG. 13b). […] (FIG. 13b-c and 17). […] Indeed, TNFα was previously reported as a prominent MES-GBM signaling pathway and inducer of a PN-to-MES transition.

Assay [4] shares this test system. Briefly: Immunoblotting of signaling pathway activation. To be noted: both cell types. The method, then: Immunoblot: Cell pellets were lysed in RIPA buffer (20 mM Tris-HCl pH7.5, 150 mM NaCl, 1 mM EDTA, 1 mM EGTA, 1% NP-40) supplemented with a 1× Protease inhibitor cocktail (Roche), 10 mM NaPPi, 10 mM NaF, and 1 mM Sodium orthovanadate. The lysates were sonicated if necessary, and electrophoresis was performed using NuPAGE Bis-Tris precast gels (Life Technologies) in NuPAGE MOPS SDS Running Buffer (50 mM MOPS, 50 mM Tris Base, 0.1% SDS, 1 mM EDTA). Protein was transferred onto Nitrocellulose membranes in transfer buffer (25 mM Tris-HCl pH 7.5, 192 mM Glycine, 20% Methanol) at 120 mA for 1 h. Protein transfer was assessed through staining with Ponceau Red for 5 min, following two washes with TBS-T. Blocking of membranes was done for 1 h at room temperature with 5% BSA in PBS. Dilutions of primary antibodies were prepared in PBS+5% BSA and membranes were incubated over night at 4° C. Following three washes for 5 min with TBS-T, dilutions of appropriate HRP-coupled secondary antibodies were prepared in PBS+5% BSA and membranes were incubated for 45 min at room temperature. After washing three times for 5 min with TBS-T, ECL detection reagent (Sigma; RPN2209) was applied and membranes were exposed to ECL Hyperfilms (Sgima; GE28-9068-37) to detect chemoluminescent signals. […]

Assay [5] relates to A549-MGT #1low cells. The assay can be described thus: Cytokine screening, microplate reader MGT #1 fluorescence. To be noted: cytokine alone. On the procedure:
Phenotypic screening: Tumor cells were propagated as described above until the screening. Then we seeded 15′000/50 μl/well in 384 well plates (Corning), in Gibco FluoroBrite DMEM medium supplemented with the appropriate growth factors. Cells were dispensed as 50 μl suspension into each well using the SPARK20M Injector system (50 μl injection volume; 100 μl/s injection speed). For non-adherent cells (e.g. GICs), cells were further centrifuge at 1500 rpm for 1 h30 min at 37° C. Bottom reading fluorescence was scanned using a SPARM 20M TECAN plate reader at 37° C. in a 5% CO2-95% air (3% for GICs) in a humidified cassette, with the following settings for mVenus: Monochromator, Ex 505 nm±20 nm, Em 535 nm±7.5 nm, manual gain:198, flashes: 35, Integration time:40 μs. In independent replicas, cell viability was measured with 0.02% AlamarBlue solution in FluoroBrite medium with the following settings: Fluorescence Top reading. Monochromator, Ex 565 nm±10 nm, Em 592 nm±10 nm, manual gain: 88, flashes: 30, Integration time:40 μs.
DMSO-soluble compounds such as GSK126, were robotically aliquoted using a D300e, whereas cytokines were robotically aliquoted to each well using an Andrew pipetting robot (AndrewAlliance), using the following concentrations:
To exploit Ezh2 inhibition and MGT #1 as a framework to clarify the signaling basis of EMT in NSCLC cells, we next performed a cytokine screening in GSK126- and vehicle-treated A549-MGT #1^low cells.

In assay [6] the test system is RELA KO MES-hGICs. Briefly: FACS quantification of MGT #1 in RELA KO MES-hGICs. The note with it: polyclonal and monoclonal RELA KO cells. On the procedure: FACS analysis: Analysis was performed with FlowJo_V10.
Canonical NFkB activation can occur downstream TNFα signaling as well as by non-canonical genotoxic stress.

For the substance TNFα, in assay [1], the “Mesenchymal differentiation (MGT #1high)” value is on record as “augmented Mesenchymal differentiation”. For the same substance, the “MGT #1 / MGT #2 fluorescence normalized to naive GICs” value in assay [2] is “turned into MES-hGICs-MGT #1^high”. Also, the “sLCR (MGT #1-2) response normalized to naive hGICs” value in assay [3] was “MES-GBM regulators”. In assay [4], the “phosphorylation of signaling proteins” value was “induced phosphorylation of NFkB-p65, STAT3 and p38-MAPK”. The “MGT #1 expression, fluorescence output” value in assay [5] is “leading signaling towards MGT #1 expression”. For the same substance, the “ability to induce MES-GBM signaling” value in assay [6] is “markedly impaired”.

These data come from US20210343368A1, “Method for Engineering Synthetic Cis-Regulatory DNA” (Max-Delbrück-Centrum für Molekulare Medizin in der …, priority 2018, published 2021).
